Experimental data as given in ChEMBL document CHEMBL2074451, “ATP- and glutathione-dependent transport of chemotherapeutic drugs by the multidrug resistance protein MRP1” (Br J Pharmacol, 1999).

Assays:
[1] = biological target: ATP-dependent translocase ABCB1 (Homo sapiens, UniProt P08183); test: TP_TRANSPORTER: uptake in A2780 and A2780AD cells; assay type: functional, cell-based
[2] = biological target: Multidrug resistance-associated protein 1 (Homo sapiens, UniProt P33527); test: TP_TRANSPORTER: uptake in membrane vesicles from GLC4/ADR cells; assay type: functional, cell membranes, Membrane vesicle; conditions: glc-4/adr
Chain of Multidrug resistance-associated protein 1 (P33527 whole entry): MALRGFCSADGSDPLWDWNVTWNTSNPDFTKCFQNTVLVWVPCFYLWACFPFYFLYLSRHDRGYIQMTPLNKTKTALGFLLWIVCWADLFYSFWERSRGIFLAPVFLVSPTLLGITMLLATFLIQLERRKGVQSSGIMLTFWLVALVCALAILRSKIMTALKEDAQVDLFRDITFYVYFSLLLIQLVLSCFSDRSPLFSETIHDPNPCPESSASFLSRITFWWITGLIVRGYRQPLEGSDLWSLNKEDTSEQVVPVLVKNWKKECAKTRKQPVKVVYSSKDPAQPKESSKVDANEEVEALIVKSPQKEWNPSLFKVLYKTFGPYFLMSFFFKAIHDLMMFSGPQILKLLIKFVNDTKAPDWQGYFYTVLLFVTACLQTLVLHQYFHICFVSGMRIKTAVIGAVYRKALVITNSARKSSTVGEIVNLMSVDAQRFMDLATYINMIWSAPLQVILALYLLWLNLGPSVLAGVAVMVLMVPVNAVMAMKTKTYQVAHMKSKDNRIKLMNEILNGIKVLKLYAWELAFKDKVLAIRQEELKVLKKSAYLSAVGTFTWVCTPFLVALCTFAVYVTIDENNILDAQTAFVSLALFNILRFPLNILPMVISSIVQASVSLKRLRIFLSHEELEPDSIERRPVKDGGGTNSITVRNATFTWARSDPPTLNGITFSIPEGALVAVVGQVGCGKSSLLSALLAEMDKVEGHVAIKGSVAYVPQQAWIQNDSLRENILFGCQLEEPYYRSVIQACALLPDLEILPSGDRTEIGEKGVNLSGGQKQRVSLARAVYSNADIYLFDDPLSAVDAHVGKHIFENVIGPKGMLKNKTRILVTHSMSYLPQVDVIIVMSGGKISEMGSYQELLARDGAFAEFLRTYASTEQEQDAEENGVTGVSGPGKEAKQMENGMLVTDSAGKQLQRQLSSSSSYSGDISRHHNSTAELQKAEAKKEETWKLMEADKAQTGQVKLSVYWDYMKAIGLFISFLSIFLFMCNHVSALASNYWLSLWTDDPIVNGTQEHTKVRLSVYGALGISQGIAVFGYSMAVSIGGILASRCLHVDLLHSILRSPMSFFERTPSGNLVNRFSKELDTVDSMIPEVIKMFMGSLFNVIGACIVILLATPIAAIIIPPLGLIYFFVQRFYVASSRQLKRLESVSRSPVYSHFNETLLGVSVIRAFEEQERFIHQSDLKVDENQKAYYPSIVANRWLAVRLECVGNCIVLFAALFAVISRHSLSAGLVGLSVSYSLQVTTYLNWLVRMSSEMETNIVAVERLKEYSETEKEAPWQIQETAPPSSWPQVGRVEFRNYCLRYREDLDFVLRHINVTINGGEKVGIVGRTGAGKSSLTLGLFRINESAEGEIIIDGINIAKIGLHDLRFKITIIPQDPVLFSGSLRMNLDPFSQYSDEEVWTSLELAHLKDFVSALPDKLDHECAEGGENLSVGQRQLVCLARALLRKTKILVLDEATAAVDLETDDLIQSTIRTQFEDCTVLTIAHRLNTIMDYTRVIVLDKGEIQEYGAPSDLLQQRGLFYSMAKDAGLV

Chain of ATP-dependent translocase ABCB1 (P08183 whole entry): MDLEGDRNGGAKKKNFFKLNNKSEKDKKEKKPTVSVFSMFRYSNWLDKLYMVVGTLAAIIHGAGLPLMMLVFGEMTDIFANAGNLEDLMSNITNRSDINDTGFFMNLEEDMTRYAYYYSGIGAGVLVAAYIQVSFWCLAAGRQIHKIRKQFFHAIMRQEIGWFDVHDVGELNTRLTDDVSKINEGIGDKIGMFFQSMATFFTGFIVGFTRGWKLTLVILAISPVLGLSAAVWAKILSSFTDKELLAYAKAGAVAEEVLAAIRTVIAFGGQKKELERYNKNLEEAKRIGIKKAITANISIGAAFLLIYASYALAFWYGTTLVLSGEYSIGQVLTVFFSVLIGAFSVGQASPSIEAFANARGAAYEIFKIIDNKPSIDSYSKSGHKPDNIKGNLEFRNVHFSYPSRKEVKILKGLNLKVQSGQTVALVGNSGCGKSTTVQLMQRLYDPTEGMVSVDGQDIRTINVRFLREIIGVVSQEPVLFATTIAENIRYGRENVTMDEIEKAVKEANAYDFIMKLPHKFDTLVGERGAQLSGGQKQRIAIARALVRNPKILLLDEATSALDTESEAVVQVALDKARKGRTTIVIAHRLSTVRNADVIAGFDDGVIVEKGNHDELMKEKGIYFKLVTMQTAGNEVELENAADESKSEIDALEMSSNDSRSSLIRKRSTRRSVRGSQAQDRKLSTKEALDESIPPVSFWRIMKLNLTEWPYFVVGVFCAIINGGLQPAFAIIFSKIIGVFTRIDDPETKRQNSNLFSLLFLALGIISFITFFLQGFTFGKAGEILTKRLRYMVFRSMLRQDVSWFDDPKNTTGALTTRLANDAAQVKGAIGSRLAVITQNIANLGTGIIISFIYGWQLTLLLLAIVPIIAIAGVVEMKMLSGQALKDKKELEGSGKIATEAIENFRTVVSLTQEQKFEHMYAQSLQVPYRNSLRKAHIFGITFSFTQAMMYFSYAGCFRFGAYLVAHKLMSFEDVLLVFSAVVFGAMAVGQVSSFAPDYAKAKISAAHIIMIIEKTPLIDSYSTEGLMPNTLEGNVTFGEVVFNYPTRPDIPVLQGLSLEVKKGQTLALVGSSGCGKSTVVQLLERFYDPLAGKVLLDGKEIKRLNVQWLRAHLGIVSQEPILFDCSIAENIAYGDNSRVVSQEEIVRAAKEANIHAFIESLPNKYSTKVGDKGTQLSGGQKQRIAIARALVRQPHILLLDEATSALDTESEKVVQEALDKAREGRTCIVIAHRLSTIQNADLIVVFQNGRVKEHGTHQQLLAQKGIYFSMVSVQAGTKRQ

| Compound | Activity [1] | Activity [2] |
| --- | --- | --- |
| CCC1C[N+]2(CCCC3(C)N=N3)C3CC45c6ccccc6N(C)C4C2CC1C3C5O (configuration not stated) | substrate [+] | – |
| CC[C@]1(O)C[C@H]2CN(CCc3c([nH]c4ccccc34)[C@@](C(=O)OC)(c3cc4c(cc3OC)N(C=O)[C@H]3[C@@](O)(C(=O)OC)[C@H](OC(C)=O)[C@]5(CC)C=CCN6CC[C@]43[C@@H]65)C2)C1 [VINCRISTINE] | – | substrate [+] |
